Legend:
[1] = system: Human CD3+ T cells
Method: 10^5 freshly isolated CD3′ T cells were activated using CD3/CD28 dynabeads (Dynal, USA) at a T cell:bead ratio of 1:1 in 200 ul of medium in 96 wells plate. Channel blockers diluted at different concentrations in PBS were added to the cells 1 h prior to stimulation (done in triplicate).
Human CD3′ T cells were stimulated with CD3/CD28 beads following incubation with different concentrations (from 0.1 to 100 nM) of MK and KTX. The activity of MK was compared to the activity of KTX that was previously described to block the channels (Beeton et al, JI 2001).

[2] = system: guinea pig ileum; test: Spontaneous motility (twitches) of guinea pig ileum strips; settings: reference toxins 10 nM; mokatoxin-1 1-100 nM
[3] = system: guinea pig ileum; test: Intraluminal pressure measurement of peristaltic activity of guinea pig ileum; settings: MgTX 10 nM; mokatoxin-1 1-100 nM
[4] = system: guinea pig ileum; settings: J Pharmacol Exp Ther. 1999; cited from earlier work
[5] = system: vector transfected cells; test: Phage panning on vector transfected cells (CONTROL); assay type: binding, human; settings: one round of panning; calculated input 5:95%
Method: Following incubation of the cells with the phages, cells were subjected to wash to remove the unbound/weakly bound phages. The remaining bound phages were eluted from the cells and transformed into XL1 E. coli, and plated onto LB plates with antibiotic selecting for the phagemids. The following day, 19-20 colonies of transformed XL1 were randomly selected and genotyped to establish the relative ratio (i.e., its departure from the calculated initial input of 5:95%) of the two different phage species, before and after the panning.

[6] = biological target: T1, Kv1.3 (Homo sapiens, UniProt P22001); test: Phage panning on live cells (HEK, COS) expressing Kv1.3 channels; assay type: binding; parameters: expressed in transfected cells; host or cells: HEK (HEK293) and COS cells
From the text: In another example, receptors may be expressed in cells. For example, cells may be stably or transiently transfected with one or more receptors can be utilized as expressed in native tissues (Clackson and Lowman, Phage display. Oxford University Press, 2004; Barbas et al., Phage display. A laboratory manual. Cold Spring Harbor Laboratory Press, 2001; Sambrook et al., Molecular Cloning: A Laboratory Manual. Vols 1-3. Cold Spring Harbor Laboratory Press, 1989). In one example, HEK (mammalian human embryonic kidney) and COS cells expressing wild-type Kv1.3 or Kv1.3-PDZ domain chimera were employed, the latter target allowing a “double” panning (e.g., as a control or to enhance binding affinity) using phages expressing kaliotoxin-1 and/or PDZ-binder domain.
Panning may be performed by the binding of ligands to the receptors, followed by washes and ligand recovery. In one example, panning is performed according to standard methods of phage display (Clackson and Lowman, Phage display. Oxford University Press, 2004; Barbas et al., Phage display. A laboratory manual. Cold Spring Harbor Laboratory Press, 2001). Panning may be repeated until the desired enrichment is achieved. In addition, libraries can be pre-depleted on surfaces or cells that contain no receptors or on a receptor where the putative ligand receptor domain may be directly or indirectly altered. Additionally, any and all conditions of panning may be varied, altered or changed to achieve optimal results, such as the isolation of a specific ligand. Panning variations include, but are not limited to, the presence of competing ligand(s), presence of excess target(s), length and temperature of binding, pre-absorption of the ligand library on one or more different receptor(s) or cells or surfaces, composition of binding solution (e.g., ionic strength), stringency of washing, and recovery procedures. Phages recovered from panning may be processed for further rounds of panning, functional analysis, and/or sequencing/genotyping to deduce the resulting ligands' amino acid sequence or biological properties (Clackson and Lowman, Phage display. Oxford University Press, 2004; Barbas et al., Phage display. A laboratory manual. Cold Spring Harbor Laboratory Press, 2001).
5×10^11 phagemids were added to the cell cultures in “B.”
A library of KTX-like ligands, with a calculated diversity of greater than 11,000, was created de novo. The library comprised approximately 8% KTX-like ligands and 92% non-KTX-like ligands. The library of ligands was screened on Kv1.3 receptors expressed in HEK and COS cells.
Transfection efficiency was monitored with cotransfection of gene encoding for the green fluorescence protein (GFP) and observing the fluorescence after 1-2 days following transfection.
KTX and mokatoxin-1 are Kv1.3 specific scorpion toxins. […] Following incubation of the cells with the phages, cells were subjected to wash to remove the unbound/weakly bound phages. The remaining bound phages were eluted from the cells and transformed into XL1 E. coli, and plated onto LB plates with antibiotic selecting for the phagemids.

[7] = biological target: T1, Kv1.3; test: Whole-cell patch-clamp of Kv1.3 currents in HEK293 cells, toxin-phage applied; assay type: cell-based; parameters: expressed in transfected cells; host or cells: HEK (HEK293) and COS cells; settings: 0.1 nM toxin-displaying phage
Method: […] […] Plasmids were transfected into cells with Lipofectamine 2000 (Invitrogen) according to the manufacturer's instructions. Experiments were performed at 24 hr. Whole-cell patch-clamp was performed using an Axopatch 200B amplifier and pCLAMP software (Molecular Devices, Union City, Calif.) at filter and sampling frequencies of 5 and 25 kHz respectively. Kv1.3 currents were evoked by 250 ms test pulses to 50 mV from −80 mV with a 5 second interpulse interval and studied in a bath solution comprising in mM: 1.3 CaCl2, 0.5 MgCl2, 0.4 MgSO4, 3.56 KCl, 0.44 KH2PO4, 139.7 NaCl, 0.34 Na2HPO4, 5.5 glucose, 10 HEPES adjusted to pH 7.4 with NaOH. […] Electrodes were coated with Sigmacote (Sigma) prior to use.
Electrophysiological recordings were performed with mokatoxin—0422 to confirm blocking of Kv1.3 channels. […] Plasmids were transfected into cells with Lipofectamine 2000 (Invitrogen) according to the manufacturer's instructions. Experiments were performed at 24 hrs. Whole-cell patch-clamp was performed using an Axopatch 200B amplifier and pCLAMP software (Molecular Devices, Union City, Calif.) at filter and sampling frequencies of 5 and 25 kHz respectively. […]

[8] = one round of panning, calculated input 5:95%

T1 sequence (P22001 whole entry, the tested form may be a part): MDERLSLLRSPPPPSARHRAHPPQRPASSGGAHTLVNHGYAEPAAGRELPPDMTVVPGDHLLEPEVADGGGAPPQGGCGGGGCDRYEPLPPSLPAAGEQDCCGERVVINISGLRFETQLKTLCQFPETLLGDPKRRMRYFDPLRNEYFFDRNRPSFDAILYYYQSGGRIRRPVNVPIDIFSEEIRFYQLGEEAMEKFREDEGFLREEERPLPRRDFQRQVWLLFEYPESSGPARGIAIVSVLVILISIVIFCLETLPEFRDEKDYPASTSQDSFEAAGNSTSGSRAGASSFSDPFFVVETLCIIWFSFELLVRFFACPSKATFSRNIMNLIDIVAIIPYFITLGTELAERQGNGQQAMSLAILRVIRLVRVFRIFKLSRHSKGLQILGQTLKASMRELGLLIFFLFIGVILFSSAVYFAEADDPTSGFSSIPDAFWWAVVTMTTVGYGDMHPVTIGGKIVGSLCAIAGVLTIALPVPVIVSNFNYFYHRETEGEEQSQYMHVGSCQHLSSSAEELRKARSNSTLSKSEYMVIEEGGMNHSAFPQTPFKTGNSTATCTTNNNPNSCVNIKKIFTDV

CC[C@H](C)[C@H](N)C(=O)N[C@@H](CC(N)=O)C(=O)N[C@H](C(=O)N[C@@H](CCCCN)C(=O)N[C@H]1CSSC[C@@H]2NC(=O)[C@H](CCCCN)NC(=O)CNC(=O)[C@H](Cc3ccccc3)NC(=O)[C@H](CCCNC(=N)N)NC(=O)[C@H](CCSC)NC(=O)CNC(=O)[C@H](C)NC(=O)[C@H](CC(=O)O)NC(=O)[C@H](CCCCN)NC(=O)[C@@H]3CSSC[C@@H](C(=O)N[C@@H](Cc4ccc(O)cc4)C(=O)N[C@@H](CO)C(=O)O)NC(=O)[C@H](CCCNC(=N)N)NC(=O)[C@H](CSSC[C@H](NC(=O)[C@H](CCC(N)=O)NC(=O)[C@H](CCC(N)=O)NC(=O)[C@@H]4CCCN4C(=O)[C@H](CC(C)C)NC(=O)[C@H](CO)NC1=O)C(=O)N[C@@H]([C@@H](C)CC)C(=O)N[C@@H](CCCCN)C(=O)N1CCC[C@H]1C(=O)N3)NC(=O)[C@H](CCCCN)NC(=O)[C@H](CCCCN)NC(=O)[C@H](CC(N)=O)NC(=O)[C@H](CCSC)NC2=O)C(C)C [MK-1, mokatoxin-1]
cell viability [1]: no reduction of cell viability

Margatoxin
induction of twitches in ileum strips [2]: induced twitches
pressure threshold for initiation and frequency of peristaltic waves [3]: induced a lowering of the pressure threshold
ileum contractions [4]: contractions

mokatoxin-2
# of genotype (%), Control [5]: 5%
# of genotype, Control [5]: 1
share after the 2nd round of panning of the library on Kv1.3 cells ([6]; HEK, KTX scaffold combinatorial library, n=18): 11%
# of genotype (%), Test [6, 8]: 90%
# of genotype, Test [6, 8]: 18
block of Kv1.3 channels expressed in mammalian cells [7]: blocks Kv1.3 channels
